Data published in patent US8501813B2, “γ-secretase inhibitor” (Kabushiki Kaisha Yakult Honsha, priority 2007, dated 2013).

What was measured:
C99 cells = experiment: Cytotoxicity on C99 cells, cell viability by Cell Counting Kit-8; assay type: cell-based, human; details: 24 h
Method: The cytotoxicity of four test substances (TLVM-5, TLVM-7, TLVM-8, and TLVM-9) on the C99 cells was measured using a method shown below.
In the present test, a medium used for the C99 cells was 500 mL of a Dulbecco's Modified Eagle's Medium (DMEM, Sigma-Aldrich Corp.) supplemented with 55 ml of fetal bovine serum (Biosource), 5.5 ml of MEM non-essential amino acids (Gibco), and 5.5 ml of penicillin/streptomycin (Gibco).
The C99 cells were suspended at a concentration of 0.75×10^5 cells/ml in the medium. The suspension was added at a concentration of 100 μL (0.75×10^4 cells)/well to a 96-well collagen plate (Akita Sumitomo Bakelite Co., Ltd.) and cultured for 2 days. Then, the medium (corresponding to 50 μL/well) in the wells was removed, and a fresh medium was added thereto at a concentration of 30 μL/well. […] Then, the cell viability was measured using Cell Counting Kit-8 (Dojindo Laboratories).

γ-secretase [1] = biological target: T1, γ-secretase (Homo sapiens, UniProt P49768); experiment: Substrate specificity: FLAG-Aβ secretion by HEK293 cells transfected with FLAG APP C99, anti-FLAG immunoprecipitation/western blot; assay type: cell-based; details: 0.2 μmol/L; for activity at 0.2 µM: HEK293, 24 h, FLAG APP C99, negative control = 100%, read-out: (i) Aβ secretion rate of HEK293 cells
Method: (§1) Of families constituting human Alcadein (hereinafter, referred to as Alc) known as a substrate for γ-secretase to colocalize with APP in brain neurons, an artificial Alcα fragment (hereinafter, referred to as Alcα C150) whose first extracellular cleavage site and γ-secretase cleavage site were determined was used to study the substrate specificity of the γ-secretase inhibitor of the present invention. β-Alcα produced from a first cleavage construct of Alcα cannot be quantified by sELISA used in Aβ measurement. Therefore, proteins with an attached FLAG tag at the N termini of first cleavage constructs of Alcα and of C99 were expressed by cells. FLAG-Aβ-like peptides secreted into a medium were collected by immunoprecipitation using anti-FLAG antibodies and detected by western blotting using the antibodies. A specific method thereof is shown below.
(§2) HEK293 cells (ATCC) (1×10^7 cells/10 cm dish) cultured in 6 ml of 10% FCS-containing DMEM (Wako Pure Chemical Industries, Ltd.) were transfected with FLAG APP C99 pcDNA3.1 (the nucleotide sequence of its coding region is shown in SEQ ID NO: 2) (J. Biol. Chem., 2003, 278, 49448-49458 (which was prepared from pcDNA3-APPC99)) or with FLAG Alcα C150 pcDNA3.1 (the nucleotide sequence of its coding region is shown in SEQ ID NO: 3) (J. Biol. Chem., 2004, 279, 24343-24354 (which was the same as pcDNA3AlcαΔE)) using Lipofectamine 2000 (Invitrogen Corp.) according to the protocol included in the reagent. Each inhibitor and a positive control (γ-Secretase Inhibitor IX (DAPT)) (Calbiochem Contact Information) were separately added at a concentration of 0.2 or 2 μmol/L. The same dose of DMSO (Wako Pure Chemical Industries, Ltd.) thereas was added as a negative control. 24 hours later, the culture supernatants were collected, and samples were preliminarily purified using beads (100 μL of 50% (v/v) Protein-G Sepharose (GE Healthcare)). Then, 15 μL of 50% (v/v) anti-FLAG antibody M2 beads (Sigma-Aldrich Corp.) were added thereto, and the samples were incubated at 4° C. for 1 hour. The beads were collected by centrifugation and washed three times with a buffer (10 mM Tris-HCl [pH 8.0], 140 mM NaCl, 0.1% n-octyl glucoside, 0.025% sodium azide), and Aβ and β-Alcα in the medium were collected. The proteins were subjected to SDS-PAGE using a 15% Tris-Tricine gel (Anal Biochem., 1987, 166 (2), 368-379) and then transferred to a membrane. The membrane was boiled for 5 minutes in PBS. Then, anti-FLAG M2 antibodies (5 μg/ml) (Sigma-Aldrich Corp.) were added thereto, and the membrane was incubated, followed by detection using a western blotting detection reagent ECL (GE Healthcare). This signal was quantified using Versa-doc system (Bio-Rad Laboratories, Inc.) to calculate protein secretion rates (the protein secretion rate of the negative control is defined as 100%).

γ-secretase [2] = biological target: T1, γ-secretase; experiment: Substrate specificity: β-Alcα secretion by HEK293 cells transfected with FLAG Alcα C150, anti-FLAG immunoprecipitation/western blot; assay type: cell-based; details: 0.2 μmol/L; for activity at 0.2 µM: HEK293, 24 h, FLAG Alcα C150, negative control = 100%, read-out: (ii) β-Alcα secretion rate of HEK293 cells
Method: as §1, §2

| Structure (SMILES) | Cell viability of C99 cells (C99 cells; exposure 0.3 μmol/L) [%] | Cell viability of C99 cells (C99 cells; exposure 1 μmol/L) [%] | Cell viability of C99 cells (C99 cells; exposure 3 μmol/L) [%] | Cell viability of C99 cells (C99 cells; exposure 10 μmol/L) [%] | Cell viability of C99 cells (C99 cells; exposure 30 μmol/L) [%] | Cell viability of C99 cells (C99 cells; exposure 100 μmol/L) [%] | (i)/(ii) ratio, Aβ / β-Alcα secretion rates (γ-secretase [1]) | cleavage of APP-C99, in words (γ-secretase [1]) | activity at 0.2 µM (γ-secretase [1]) [%] | γ cleavage of the Alcα-C150, in words (γ-secretase [2]) | activity at 0.2 µM (γ-secretase [2]) [%] |
| --- | --- | --- | --- | --- | --- | --- | --- | --- | --- | --- | --- |
| CSCCC(NC(=O)C(NC(=O)C(CC(C)C)CC(O)C(NC(=O)OC(C)(C)C)C(C)O)C(C)C)C(=O)NCc1ccccc1 [TLVM-5, [5S-(tert-butoxycarbonylamino)-4R,6R-dihydroxy-2R-(2-methylpropyl)heptanoyl]-L-valyl-L-methionine benzylamide] | 102 | 109 | 112 | 104 | 82 | 46 | 0.29 | specifically inhibited | 41 | did not inhibit | 140 |
| CCCCNC(=O)C(CCSC)NC(=O)C(NC(=O)C(CC(C)C)CC(O)C(NC(=O)OC(C)(C)C)C(C)O)C(C)C [TLVM-7, [5S-(tert-butoxycarbonylamino)-4R,6R-dihydroxy-2R-(2-methylpropyl)heptanoyl]-L-valyl-L-methionine n-butylamide] | 92 | 105 | 96 | 102 | 91 | 96 | 0.30 | specifically inhibited | 36 | did not inhibit | 120 |
| CSCCC(NC(=O)C(NC(=O)C(CC(C)C)CC(O)C(NC(=O)OC(C)(C)C)C(C)O)C(C)C)C(=O)NC(C)c1ccccc1 [TLVM-8, [5S-(tert-butoxycarbonylamino)-4R,6R-dihydroxy-2R-(2-methylpropyl)heptanoyl]-L-valyl-L-methionine (S)-α-methylbenzylamide] | 101 | 102 | 101 | 98 | 91 | 8 | 0.27 | specifically inhibited | 32 | did not inhibit | 118 |
| CSCCC(NC(=O)C(NC(=O)C(CC(C)C)CC(O)C(NC(=O)OC(C)(C)C)C(C)O)C(C)C)C(=O)NCc1ccc(F)cc1 [TLVM-9, [5S-(tert-butoxycarbonylamino)-4R,6R-dihydroxy-2R-(2-methylpropyl)heptanoyl]-L-valyl-L-methionine 4-fluorobenzylamide] | 104 | 106 | 106 | 105 | 93 | 57 | 0.27 | specifically inhibited | 43 | did not inhibit | 158 |
